Reference: paper PMC10253161, “New 5-Hydroxycoumarin-Based Tyrosyl-DNA Phosphodiesterase I Inhibitors Sensitize Tumor Cell Line to Topotecan” (International Journal of Molecular Sciences, 2023)
Where two headings read alike, the source gives them in different places.

Assays:
TDP1 [1] = target: T1, TDP1 (Homo sapiens, UniProt Q9NUW8); experiment: Real-time fluorescence detection of TDP1 activity (FAM/BHQ1 oligonucleotide biosensor); assay type: biochemical
T1 construct: made in house
Source text: To determine the inhibitory properties of the new compounds against TDP1 we used a previously designed real-time oligonucleotide biosensor with 5(6)-carboxyfluorescein (FAM) at the 5′ end and fluorophore quencher BHQ1 (Black Hole Quencher-1) at the 3′-end.
The biosensor, 16-mer DNA oligonucleotide (5′-[FAM] AAC GTC AGGGTC TTC C [BHQ]-3′) was synthesized in the Laboratory of Nucleic Acid Chemistry at the Institute of Chemical Biology and Fundamental Medicine (Novosibirsk, Russia). Real-time fluorescence detection of TDP1 enzyme activity was carried out as described. The recombinant TDP1 was purified as described, using plasmid pET 16B-TDP1, kindly provided by Dr. K.W. Caldecott (University of Sussex, Brighton, UK). To the reaction mixture (200 μL) containing 50 nM oligonucleotide in buffer (50 mM Tris-HCl, pH 8.0, 50 mM NaCl, and 7 mM β-mercaptoethanol), varied concentrations of the tested compounds and purified TDP1 in a final concentration of 1.5 nM were added.
Fluorescence intensity was measured (Ex485/Em520 nm) using POLARstar OPTIMA fluorimeter (BMG LABTECH, GmbH, Ortenberg, Germany) every 1 min for 7 min. The half maximal inhibitory concentrations (IC50) were determined using a six-point concentration response curve and calculated using MARS Data Analysis 2.0 (BMG LABTECH). At least three independent experiments were carried out to obtain the IC50 values.

[2] = Cytotoxicity of compounds, MTT test, HEK293A; assay type: cell-based; settings: human, HEK293A cells, compound alone, read-out: CC50 HEK 293A
Protocol: (§1) The cytotoxicity of the compounds to HeLa (human cervical cancer) and HEK293A (human embryonic kidney) cell lines was determined using standard colorimetric MTT-test. Cells were seeded in 96-well plates (5000 cells per well) and cultured in DMEM medium (Invitrogen, Carlsbad, CA, USA) supplemented with 10% fetal bovine serum (FBS) (Invitrogen), penicillin (100 units/mL), and streptomycin (100 μg/mL) at 37 °C and 5% CO2 in a humid atmosphere. Control wells contained 1% DMSO. At 30–50% confluence, the tested compounds were added to the medium. To determine the cytotoxicity of Tdp1 inhibitors, the cells were allowed to attach for 24 h and were treated with compounds with concentrations ranging from 1 to 100 μM for 72 h at 37 °C. All measurements were repeated three times.

HeLa cells = experiment: Effect of compounds on topotecan cytotoxicity, MTT test, HeLa; assay type: cell-based, human
Protocol: as §1
(§2) To study the effect of the compounds on the cytotoxicity of topotecan, an aqueous solution of topotecan was used at concentrations from 0.2 to 2 μM for HeLa cells and from 0.05 to 0.5 μM for HEK293A cells against the background of 10 μM of the compounds. Cells treated with compounds alone without topotecan were used as controls.

[3] = Cytotoxicity of compounds, MTT test, HeLa; assay type: cell-based; settings: human, HeLa cells, compound alone
Protocol: as §1

HEK293A cells = experiment: Effect of compounds on topotecan cytotoxicity, MTT test, HEK293A; assay type: cell-based, human; settings: 10 µM compound, result in words
Protocol: as §1, §2

[4] = as above; assay type: cell-based, human; settings: human
Protocol: as §1, §2

TDP1 [5] = target: T1, TDP1; parameters: method as in PMID 27658793, PMID 31878088; settings: previously found 7-hydroxycoumarin derivatives; cited from earlier work
[6] = Table 1, recombinant TDP1 1.5 nM, 50 nM oligonucleotide, read-out: TDP1 inhibitory activities (IC50)
[7] = Table 2, TDP1 IC50, partly rounded, read-out: IC50

T1 sequence (Q9NUW8 whole entry): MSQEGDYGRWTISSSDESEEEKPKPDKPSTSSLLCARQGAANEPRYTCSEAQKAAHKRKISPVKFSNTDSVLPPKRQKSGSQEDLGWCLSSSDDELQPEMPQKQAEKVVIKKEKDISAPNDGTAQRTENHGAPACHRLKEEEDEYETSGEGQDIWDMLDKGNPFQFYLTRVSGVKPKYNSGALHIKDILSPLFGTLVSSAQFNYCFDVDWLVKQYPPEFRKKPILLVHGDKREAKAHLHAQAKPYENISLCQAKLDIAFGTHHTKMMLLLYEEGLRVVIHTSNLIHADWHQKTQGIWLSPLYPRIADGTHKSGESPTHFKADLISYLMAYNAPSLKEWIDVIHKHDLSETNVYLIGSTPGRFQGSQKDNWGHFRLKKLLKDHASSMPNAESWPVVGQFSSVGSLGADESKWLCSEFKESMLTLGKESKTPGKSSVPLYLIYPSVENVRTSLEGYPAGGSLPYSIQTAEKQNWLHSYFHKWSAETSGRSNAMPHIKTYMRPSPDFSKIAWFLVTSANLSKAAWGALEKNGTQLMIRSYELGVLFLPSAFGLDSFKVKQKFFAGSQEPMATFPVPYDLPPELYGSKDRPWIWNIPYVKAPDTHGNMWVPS

SMILES | IC50 (TDP1 [1]; [6]) [µM] | IC50 (TDP1 [1]; [7]) [µM] | CC50 at 72 h [2] [µM] | Effect on the cytotoxicity of topotecan, HeLa (HeLa cells; 10 µM compound, result in words) | CC50 at 72 h [3] [µM] | melting point [°C] | Effect on the cytotoxic effect of topotecan, HEK293A (HEK293A cells) | CC50 [4] [µM] | CC50 (HeLa cells; Homo sapiens, HeLa, read-out: Tpc CC50 HeLa) [µM] | IC50 (TDP1 [5]) [µM]
CC(C)=CCC/C(C)=C/COc1cccc2oc(=O)c(-c3ccc(F)cc3)c(C)c12 [33a, (E)-5-(3,7-Dimethylocta-2,6-dienyloxy)-3-(4-fluorophenyl)-4-methyl-2H-chromen-2-one] | 0.13 ± 0.03 | 0.13 ± 0.03 | > 100 | significantly increased cytotoxicity of topotecan | > 100 | – | – | – | – | –
Cc1c(-c2ccc(F)cc2)c(=O)oc2cccc(OCCC(C)CCCC(C)C)c12 (stereo not drawn) [33b, 5-(3,7-Dimethyloctyloxy)-3-(4-fluorophenyl)-4-methyl-2H-chromen-2-one] | 0.29 ± 0.07 | 0.29 ± 0.07 | 40 ± 10 | – | > 100 | 114 | – | – | – | –
Cc1c(-c2ccc(F)cc2)c(=O)oc2cccc(OCC3=CC[C@H]4C[C@@H]3C4(C)C)c12 [33c, 5-(((1R,5S)-6,6-Dimethylbicyclo[3.1.1]hept-2-en-2-yl)methoxy)-3-(4-fluorophenyl)-4-methyl-2H-chromen-2-one] | 5.25 ± 0.04 | 5.25 ± 0.04 | > 100 | – | 89 ± 7 | 152 | – | – | – | –
Cc1c(-c2ccc(F)cc2)c(=O)oc2cccc(OCCC3=CC[C@H]4C[C@@H]3C4(C)C)c12 [33d, 5-(2-((1R,5S)-6,6-Dimethylbicyclo[3.1.1]hept-2-en-2-yl)ethoxy)-3-(4-fluorophenyl)-4-methyl-2H-chromen-2-one] | 2.51 ± 0.14 | – | – | – | – | 114 | – | – | – | –
CC(C)=CCC/C(C)=C/COc1cccc2oc(=O)c(-c3ccc(Br)cc3)c(C)c12 [34a, (E)-3-(4-Bromophenyl)-5-(3,7-dimethylocta-2,6-dienyloxy)-4-methyl-2H-chromen-2-one] | 1.06 ± 0.06 | 1.06 ± 0.06 | 53 ± 1.2 | – | 32 ± 3 | 93 | – | – | – | –
Cc1c(-c2ccc(Br)cc2)c(=O)oc2cccc(OCCC(C)CCCC(C)C)c12 (stereo not drawn) [34b, 3-(4-Bromophenyl)-5-(3,7-dimethyloctyloxy)-4-methyl-2H-chromen-2-one] | – | – | – | – | – | 137 | – | – | – | –
Cc1c(-c2ccc(Br)cc2)c(=O)oc2cccc(OCC3=CC[C@H]4C[C@@H]3C4(C)C)c12 [34c, 3-(4-Bromophenyl)-5-(((1R,5S)-6,6-dimethylbicyclo[3.1.1]hept-2-en-2-yl)methoxy)-4-methyl-2H-chromen-2-one] | 0.9 ± 0.07 | 0.9 ± 0.07 | > 100 | – | > 100 | 148 | protect cells from the cytotoxic effects of topotecan | – | – | –
COc1ccc(-c2c(C)c3c(OC/C=C(\C)CCC=C(C)C)cccc3oc2=O)cc1 [35a, (E)-5-(3,7-Dimethylocta-2,6-dienyloxy)-3-(4-methoxyphenyl)-4-methyl-2H-chromen-2-one] | 6.63 ± 1.12 | 7 ± 1 | > 100 | – | > 100 | 85 | – | – | – | –
COc1ccc(-c2c(C)c3c(OCCC(C)CCCC(C)C)cccc3oc2=O)cc1 (stereo not drawn) [35b, 5-(3,7-Dimethyloctyloxy)-3-(4-methoxyphenyl)-4-methyl-2H-chromen-2-one] | 0.37 ± 0.16 | 0.4 ± 0.2 | > 100 | – | 90.7 ± 0.5 | – | – | – | – | –
COc1ccc(-c2c(C)c3c(OCC4=CC[C@H]5C[C@@H]4C5(C)C)cccc3oc2=O)cc1 [35c, 5-(((1R,5S)-6,6-Dimethylbicyclo[3.1.1]hept-2-en-2-yl)methoxy)-3-(4-methoxyphenyl)-4-methyl-2H-chromen-2-one] | 1.14 ± 0.15 | 1.1 ± 0.2 | > 100 | – | 73 ± 6 | – | – | – | – | –
CC(C)=CCC/C(C)=C/COc1cccc2oc(=O)c(-c3ccccc3Br)c(C)c12 [36a, (E)-3-(2-Bromophenyl)-5-(3,7-dimethylocta-2,6-dienyloxy)-4-methyl-2H-chromen-2-one] | 0.85 ± 0.15 | 0.9 ± 0.2 | 59 ± 6 | – | 49 ± 2 | – | – | – | – | –
Cc1c(-c2ccccc2Br)c(=O)oc2cccc(OCCC(C)CCCC(C)C)c12 (stereo not drawn) [36b, 3-(2-Bromophenyl)-5-(3,7-dimethyloctyloxy)-4-methyl-2H-chromen-2-one] | ≥ 50 | – | – | – | – | 73 | – | – | – | –
Cc1c(-c2ccccc2Br)c(=O)oc2cccc(OCC3=CC[C@H]4C[C@@H]3C4(C)C)c12 [36c, 3-(2-Bromophenyl)-5-(((1R,5S)-6,6-dimethylbicyclo[3.1.1]hept-2-en-2-yl)methoxy)-4-methyl-2H-chromen-2-one] | 4.36 ± 1.14 | 4.36 ± 1.14 | > 100 | – | 73.5 ± 0.6 | 157 | – | – | – | –
COc1ccccc1-c1c(C)c2c(OC/C=C(\C)CCC=C(C)C)cccc2oc1=O [37a, (E)-5-(3,7-Dimethylocta-2,6-dienyloxy)-3-(2-methoxyphenyl)-4-methyl-2H-chromen-2-one] | 1.22 ± 0.04 | 1.22 ± 0.04 | 16 ± 0.7 | – | 18 ± 10 | 99 | – | – | – | –
COc1ccccc1-c1c(C)c2c(OCCC(C)CCCC(C)C)cccc2oc1=O (stereo not drawn) [37b, 5-(3,7-Dimethyloctyloxy)-3-(2-methoxyphenyl)-4-methyl-2H-chromen-2-one] | 2.6 ± 0.35 | – | – | – | – | 114 | – | – | – | –
COc1ccccc1-c1c(C)c2c(OCC3=CC[C@H]4C[C@@H]3C4(C)C)cccc2oc1=O [37c, 5-(((1R,5S)-6,6-Dimethylbicyclo[3.1.1]hept-2-en-2-yl)methoxy)-3-(2-methoxyphenyl)-4-methyl-2H-chromen-2-one] | 0.79 ± 0.06 | 0.79 ± 0.06 | 52.3 ± 0.9 | – | 72 ± 2 | 164 | protect cells from the cytotoxic effects of topotecan | – | – | –
COc1ccccc1-c1c(C)c2c(OCCC3=CC[C@H]4C[C@@H]3C4(C)C)cccc2oc1=O [37d, 5-(2-((1R,5S)-6,6-Dimethylbicyclo[3.1.1]hept-2-en-2-yl)ethoxy)-3-(2-methoxyphenyl)-4-methyl-2H-chromen-2-one] | 3.93 ± 0.77 | 3.9 ± 0.8 | 87 ± 7 | – | 48 ± 4 | 135 | – | – | – | –
CC(C)=CCC/C(C)=C/COc1cccc2oc(=O)c(-c3ccccc3[N+](=O)[O-])c(C)c12 [38a, (E)-5-(3,7-Dimethylocta-2,6-dienyloxy)-4-methyl-3-(2-nitrophenyl)-2H-chromen-2-one] | 1.03 ± 0.08 | 1.03 ± 0.08 | > 100 | – | > 100 | 73 | protect cells from the cytotoxic effects of topotecan | – | – | –
Cc1c(-c2ccccc2[N+](=O)[O-])c(=O)oc2cccc(OCCC(C)CCCC(C)C)c12 (stereo not drawn) [38b, 5-(3,7-Dimethyloctyloxy)-4-methyl-3-(2-nitrophenyl)-2H-chromen-2-one] | 2.18 ± 0.13 | – | – | – | – | 61 | – | – | – | –
Cc1c(-c2ccccc2[N+](=O)[O-])c(=O)oc2cccc(OCC3=CC[C@H]4C[C@@H]3C4(C)C)c12 [38c, 5-(((1R,5S)-6,6-Dimethylbicyclo[3.1.1]hept-2-en-2-yl)methoxy)-4-methyl-3-(2-nitrophenyl)-2H-chromen-2-one] | 3.83 ± 0.29 | 3.8 ± 0.3 | 32 ± 13 | – | 83 ± 3 | – | – | – | – | –
CC[C@@]1(O)C(=O)OCc2c1cc1n(c2=O)Cc2cc3c(CN(C)C)c(O)ccc3nc2-1 [Tpc, topotecan] | – | – | – | – | – | – | – | 0.04 ± 0.012 | 0.88 ± 0.24 | –
CC1(C)C2CC=C(COc3ccc4c5c(c(=O)oc4c3)CCC5)C1C2 (stereo not drawn) [compound 11] | – | – | – | – | – | – | – | – | – | 0.7
CC(C)=CCC/C(C)=C/COc1ccc2c(-c3ccc(F)cc3)cc(=O)oc2c1 [compound 12] | – | – | – | – | – | – | – | – | – | 0.6
